Key:
CRTH2 [1] = target: T1, CRTH2 (Homo sapiens, UniProt Q9Y5Y4); assay: DPBS CD11b antagonist assay (CD11b expression in eosinophils challenged with 15R-Methyl-PGD2); type: cell-based; settings: polymorphonuclear cells in PBS with CaCl2/MgCl2; agonist 15R-Methyl-PGD2 10 nM; eosinophils gated by flow cytometry
T1 construct: endogenous in cells; host or cells: eosinophils in human whole blood
T1 sequence (Q9Y5Y4 1-395): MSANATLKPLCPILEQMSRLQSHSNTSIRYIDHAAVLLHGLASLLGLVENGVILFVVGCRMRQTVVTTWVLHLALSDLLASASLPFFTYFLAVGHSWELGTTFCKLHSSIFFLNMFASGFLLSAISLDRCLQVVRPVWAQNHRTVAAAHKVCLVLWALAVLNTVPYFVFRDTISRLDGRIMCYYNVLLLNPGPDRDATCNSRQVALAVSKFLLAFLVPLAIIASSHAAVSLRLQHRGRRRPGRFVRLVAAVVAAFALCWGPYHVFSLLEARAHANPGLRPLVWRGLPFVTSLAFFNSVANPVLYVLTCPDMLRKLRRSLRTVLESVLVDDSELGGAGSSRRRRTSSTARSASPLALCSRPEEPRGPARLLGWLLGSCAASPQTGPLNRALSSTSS
Experimental: DPBS CD111b Antagonist Assay.
The potential CRTH2 antagonist, activity of certain compounds was tested using a CD11b expression assay using essentially the method described by Monneret et al. (J Pharmacol Exp Ther 304:349-55, 2003). Briefly, polymorphonuclear cells (0.5 ml; 10^6/ml cells) in PBS containing 0.9 mM CaCl2 and 0.5 mM MgCl2) were preincubated with various concentrations of test compounds at room temperature for 10 minutes before they were challenged with the agonist 15R-Methyl-PGD2 (10 nM). The incubations were terminated by the addition of ice-cold FACSFlow (BD Biosciences; Cat#342003) and centrifugation (400 g for 5 minutes at 4° C.). The cells were then incubated for 30 minutes at 4° C. with a mixture of PE-labeled mouse anti-human VLA-4 (5 μl; BD Biosciences) and FITC-labeled mouse anti-human CD11b (10 μl; Beckman Coulter). The cells were then incubated with Optilyse C (0.25 ml; Beckman Coulter) for 15 minutes, centrifuged, and then fixed in PBS (0.4 ml; calcium and magnesium free) containing 1% formaldehyde. The distribution of fluorescence intensities among 60,000 cells was measured by flow cytometry. Eosinophils were gated out on the basis of their granularity (high side scatter) and labeling with VLA-4 (PE fluorescence). CD11b was then measured in the eosinophil region on the basis of fluorescence due to FITC. All data were corrected for the value obtained for the corresponding isotope control antibody.

CRTH2 [2] = target: T1, CRTH2; assay: Human whole blood CD11b antagonist assay (CD11b expression in eosinophils challenged with 15-R-methyl-PGD2); type: cell-based; settings: 37° C. 10 minutes preincubation, agonist 15R-Methyl-PGD2 10 nM, eosinophils gated by flow cytometry
Experimental: Human Whole Blood […] Antagonist Assay (Modified from Nicholson, et al. Pulmonary Pharmacology and Therapeutics: 20 (2007); 52-59).
The potential CRTH2 antagonist activity of certain compounds was tested in human whole blood using an assay that tests the ability of the compounds to block the CD11b expression in eosinophils by 15-R-methyl-PGD2. A CRTH2 antagonist should block CD11b expression by subsequently added 15-Methyl-PGD2. Human whole blood (200 μL) was incubated at 37° C. for 10 minutes in the presence of various concentrations of test compounds before being challenged with the agonist 1-5R-Methyl-PGD2 (10 nM). Reactions were terminated by the addition of ice-cold PBS+0.5% BSA+2 mM EDTA (1 mL) and centrifugation (300×g for 5 minutes at 4° C.) Cells were then incubated at 4° C. for 10 min in the presence of human IgG. Cells were then incubated for 30-45 min with a mixture of PE-Cy5-labeled mouse anti-human CD16 (10 ul; BD Biosciences) and FITC-labeled mouse anti-human CD11b (10 μL; Beckman Coulter.) After rinsing (1 mL ice-cold PBS+0.5% BSA+2 mM EDTA), red blood cells were lysed by the addition of 1 mL ice-cold H2O to the cell pellet for 30 sec-1 min immediately followed by the addition of 3.5% NaCl (300 μL.) Cells were then rinsed (2×−1 ml ice cold PBS+0.5% BSA+2m MEDTA) and fixed in PBS containing 1% formaldehyde. The distribution of fluorescence intensities was measured by flow cytometry. Eosinophils were gated out on the basis of their granularity (high side scatter) and absence of CD-16. CD11b was then measured on this eosinophil population on the basis of fluorescence due to FITC.

Compound | IC50 (CRTH2 [1]) [nM] | IC50 (CRTH2 [2]) [nM]
Cc1c(Cc2cccnc2S(=O)(=O)C2CC2)c2c(n1CC(=O)O)CC(C)(C)CC2=O [Compound I-4, 2-(3-((2-(cyclopropylsulfonyl)pyridin-3-yl)methyl)-2,6,6-trimethyl-4-oxo-4,5,6,7-tetrahydro-1H-indol-1-yl)acetic acid] | 100 to 500 | 100 to 500
CCOC(=O)Cn1c(C)c(Cc2cccnc2S(=O)(=O)c2ccc(C(F)(F)F)cc2)c2c1CC(C)(C)CC2=O [Compound I-10, Ethyl 2-(2,6,6-trimethyl-4-oxo-3-((2-(4-(trifluoromethyl)phenylsulfonyl)pyridin-3-yl)methyl)-4,5,6,7-tetrahydro-1H-indol-1-yl)acetate] | 1 to 5 | 100 to 500
Cc1c(Cc2ccccc2NS(=O)(=O)N2CCCC2)c2c(n1CC(=O)O)CC(C)(C)CC2=O [Compound I-44] | 1 to 5 | 100 to 500
Cc1ccc(S(=O)(=O)N(C)c2cccc(Cc3c4c(n(CC(=O)O)c3C)CC(C)(C)CC4=O)c2)cc1 [Compound I-45, 2-(3-(3-(N,4-Dimethylphenylsulfonamido)benzyl)-2,6,6-trimethyl-4-oxo-4,5,6,7-tetrahydro-1H-indol-1-yl)acetic acid] | 100 to 500 | > 3000
Cc1c(Cc2ccccc2S(=O)(=O)N2CCCC2)c2c(n1CC(=O)O)CC(C)(C)C/C2=N\OCc1ccccc1 [Compound I-31, (E)-2-(4-(Benzyloxyimino)-2,6,6-trimethyl-3-(2-(pyrrolidin-1-ylsulfonyl)benzyl)-4,5,6,7-tetrahydro-1H-indol-1-yl)acetic acid] | 1 to 5 | 100 to 500
Cc1ccc(S(=O)(=O)c2ncccc2Cc2c3c(n(CC(=O)O)c2C)CC(C)(C)CC3=O)cc1 [Compound I-20, 2-(2,6,6-Trimethyl-4-oxo-3-((2-tosylpyridin-3-yl)methyl)-4,5,6,7-tetrahydro-1H-indol-1-yl)acetic acid] | < 1 | 5 to 20
Cc1c(Cc2ccccc2NS(=O)(=O)c2ccc(O)cc2)c2c(n1CC(=O)O)CC(C)(C)CC2=O [Compound I-48, 2-(3-(2-(4-Hydroxyphenylsulfonamido)benzyl)-2,6,6-trimethyl-4-oxo-4,5,6,7-tetrahydro-1H-indol-1-yl)acetic acid] | < 1 | 1 to 5

Reference: patent US20130259830A1, “CRTH2 MODULATORS” (Ironwood Pharmaceuticals, Inc., priority 2010, published 2013)
